Results published in PubChem BioAssay (NCI).
“And” between values parts separate entries of the source, which are not always exact repeats. Equal values may be shown once.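 Each compound was tested at five concentrations against cells in 96-well plates for 48 hours. GI50 = concentration required for 50% inhibition of growth. At the TGI there is no net growth.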

Columns and labels:
Test in all cases: DTP human tumour cell line panel, 48 h
[1] = system: 786-0 renal
[2] = system: COLO 205 colon
[3] = system: RXF 393 renal
[4] = system: SK-MEL-2 melanoma
[5] = system: OVCAR-3 ovarian
[6] = system: OVCAR-8 ovarian
[7] = system: SF-539 CNS
[8] = system: HOP-92 NSCLC
[9] = system: T-47D breast
[10] = system: LOX IMVI melanoma

| SMILES | GI50 [1] [µM] | TGI [1] | GI50 [2] [µM] | TGI [2] [µM] | GI50 [3] [µM] | TGI [3] [µM] | GI50 [4] [µM] | TGI [4] | GI50 [5] [µM] | TGI [5] | GI50 [6] | TGI [6] | GI50 [7] [µM] | TGI [7] | GI50 [8] [µM] | TGI [8] | GI50 [9] [µM] | TGI [9] | GI50 [10] [µM] | TGI [10] |
| --- | --- | --- | --- | --- | --- | --- | --- | --- | --- | --- | --- | --- | --- | --- | --- | --- | --- | --- | --- | --- |
| O=C(NN1C(=O)CSC1c1cccc(Cl)c1)C(O)c1ccccc1 (stereo unspecified) | > 100 | > 100 µM | > 100 | > 100 | 59.3 | > 100 | > 100 | > 100 µM | 33.8 | > 100 µM | 83.5 µM | > 100 µM | > 100 | > 100 µM | > 100 | > 100 µM | 67.7 | > 100 µM | > 100 | > 100 µM |
| CC(=O)c1ccc2c(c1)N(CCCN1CCN(CCO)CC1)c1ccccc1S2 | 1.77 | 3.64 µM | 1.74 | 3.5 | 2.09 | 5.95 | 2.11 | 6.02 µM | 2.85 | 8.9 µM | 3.34 µM | 10.5 µM | 1.73 | 3.55 µM | 1.1 | 5.97 µM | 1.94 | 5.2 µM | 1.68 | 3.26 µM |
| CCCCCCNCCCNc1c2cc(OC)ccc2nc2cccc([N+](=O)[O-])c12 | 0.205 | 0.368 µM and 0.724 µM | 0.143 | 0.648 | – | 0.111 | 0.048 | 0.209 µM and 0.199 µM | 0.309 | 0.297 µM and 1.05 µM | 0.236 µM and 0.105 µM | 2.45 µM and 0.644 µM | 0.239 | 1.18 µM and 0.616 µM | 0.239 | 0.534 µM and 0.655 µM | 0.35 | 0.931 µM and 2.49 µM | 0.272 | 0.542 µM and 0.974 µM |
| Cn1cc(-c2cc(-c3cn(C)c4ccc(Cl)cc34)[nH]n2)c2cc(Cl)ccc21 | 3.41 | 11.4 µM | 2.22 | 5.35 | 3.03 | 16.2 | 2.34 | 6.13 µM | 4.41 | 40.6 µM | 4.03 µM | 19.8 µM | 1.81 | 3.46 µM | 1.86 | 4.74 µM | 4.06 | 20.7 µM | 1.7 | 3.8 µM |
| Nc1nc(N)c2cc(Sc3ccc4ccccc4c3)ccc2n1 | – | 3.27 µM | – | 2.91 | – | 4.62 | 1.68 | 3.42 µM | – | 8.63 µM | – | 2.84 µM | – | 5.04 µM | – | 5.44 µM | – | 4.04 µM | – | 1.93 µM |
| Cc1cc(CCl)c(C)cc1CCl | 2.19 | – | 1.53 | 3.11 | 2.93 | 8.72 | 3.27 | 13.3 µM | 1.76 | 4.04 µM | 3.21 µM | 17.4 µM | 1.02 | 4.26 µM | 2.52 | 9.55 µM | 0.733 | 2.31 µM | 0.883 | 3.79 µM |
| C=C(CN1CCc2c([nH]c3ccccc23)C1)c1ccc(C(=O)Nc2ccccc2N)cc1 | 4.96 | 23.6 µM | 6.35 | 20.9 | 4.27 | 12.8 | 4.54 | 22 µM | 18.4 | 29.1 µM | 1.9 µM | 14.7 µM | 2.76 | 9.81 µM | 1.66 | 11.4 µM | 8.5 | 50 µM | 4.52 | 10.2 µM |
| FC(F)(F)c1ccc(-c2nn3ncccc3c2-c2ccnc(Nc3ccc4c(c3)OCCO4)n2)cc1 | 17.3 | > 25 µM | 16.6 | > 25 | 4.4 | > 17 | 11.6 | > 25 µM | 11.6 | > 25 µM | 13.2 µM | > 25 µM | > 19.7 | > 25 µM | 2.02 | 21.9 µM | 4.78 | > 25 µM | 5.16 | 15.3 µM |
| COc1cc(F)ccc1-c1cc(Nc2cc(CS(C)(=N)=O)ccn2)ncc1F (stereo unspecified) | 0.0446 | > 47 µM | 0.0333 | 0.17 | 0.0221 | 0.0536 | 0.135 | 0.437 µM | 0.0803 | > 100 µM | 0.0914 µM | > 100 µM | 0.0366 | 0.272 µM | 0.0214 | 0.314 µM | 0.121 | – | 0.0307 | > 100 µM |
| COc1ccc(C2=NC(=O)NC2c2ccc(OC)cc2)cc1 (stereo unspecified) | 26.9 | > 100 µM | 6.47 | 21.3 | 12 | 51.5 | 5.34 | 52.8 µM | 10.8 | 35.3 µM | 29.6 µM | > 100 µM | 12.6 | 54.8 µM | 1.95 | 30.5 µM | 6.9 | > 100 µM | 12.4 | > 100 µM |
| CCOC(=O)c1sc(-c2ccc(OS(=O)(=O)C[C@]34CCC(CC3=O)C4(C)C)c(C=O)c2)nc1C | 1.39 | 4.09 µM | 1.07 | 2.62 | 0.943 | 2.75 | 1.13 | 2.69 µM | 0.904 | 2.72 µM | 1.53 µM | > 50 µM | 0.908 | 1.85 µM | 0.951 | 3.7 µM | 0.78 | 2.46 µM | 1.05 | 2.34 µM |
| CSc1ncnc2c1ncn2CC(=O)C1CCC2C3CCC4=CC(=O)CCC4(C)C3CCC12C (stereo unspecified) | – | > 100 µM | – | 14.4 | – | > 100 | – | 11.6 µM | – | 25.8 µM | – | > 40.7 µM | – | 44.7 µM | – | > 88.3 µM | – | 5.63 µM | – | 19.4 µM |
| CC(=O)c1cccc(NC(=O)C(=O)c2c(O)c3ccccc3oc2=O)c1 | – | > 100 µM | – | – | – | > 100 | – | – | – | > 100 µM | – | > 100 µM | – | > 100 µM | – | > 100 µM | – | > 100 µM | – | > 100 µM |
